Consider 2 molecules from patent publication US20260240834A1, “METHODS OF TREATING CANCER” (XRad Holding Cayman Limited, priority 2023, published 2026).

Like-named read-outs stand apart in the source and are kept apart here.

Test [1] has as its system UWB1.289 BRCA1 mutant human ovarian cancer cell line. The test is described as follows: CellTiter-Glo (CTG) cell growth inhibition, UWB1.289. It counts as cell-based. Conditions: UWB1.289 cells; for IC50: Homo sapiens. From the text: (§1) A549 human lung carcinoma cell line, UWB1.289 BRCA1 mutant human ovarian cancer cell line, and UWB1.289+BRCA1 stable cell line derived from UWB1.289, in which wild-type BRCA1 was restored, were obtained from the American Type Culture Collection (ATCC). Capan-1 BRCA2 mutant human pancreatic cell line was obtained from the Duke Cell Culture Facility (Duke University, Durham, NC). HCC1937 BRCA1 mutant breast cancer cell line was obtained from Simon Powell (Memorial-Sloan Kettering, NY, NY). All cell lines were authenticated by short tandem repeat profiling and tested negative for mycoplasma. A549 cells were cultured in RPMI 1640 medium (Gibco), supplemented with 10% fetal bovine serum (FBS) (Corning) and 1× Antibiotic-Antimycotic (A-A) (Gibco). Capan-1 cells were grown in Iscove's Modified Dulbecco's Medium (IMDM) (Gibco), 20% FBS and 1×A-A. HCC1937 cells were grown in Iscove's Modified Dulbecco's Medium, 15% serum, and L-glutamine (2 mM). UWB1.289 and UWB1.289+BRCA1 cells were grown in 50% RPMI 1640 supplemented with 1 mM Sodium Pyruvate, 10 mM HEPES and 4500 mg/L glucose and 50% Mammary Epithelial Growth Medium (MEGM) (Clonetics) with 200 ug/ml G-418 (Gibco) and supplemented with 3% FBS and 1×A-A. All cell lines were grown at 37° C. in 5% CO2. Cell growth inhibition was determined via the CellTiter-Glo (CTG) assay (Promega). […] HCC1937 and UWB1.289 cells were treated with increasing concentrations of Compound A, niraparib, or the combination for 7 days.

The test system of test [2] is Capan-1 BRCA2 mutant human pancreatic cell line. Put plainly: CellTiter-Glo (CTG) cell growth inhibition, Capan-1. The test is classed as cell-based. The note with it: Capan-1 cells; for IC50: Homo sapiens, 312 h.
Text: as §1

Test [3] has as its system UWB1.289+BRCA1 stable cell line (wild-type BRCA1 restored). The test is described as follows: CellTiter-Glo (CTG) cell growth inhibition, UWB1.289+BRCA1. It counts as cell-based, human. The note with it: for IC50: Homo sapiens, UWB1289, UWB1.289 + BRCA1 cells.
Text: as §1
For orientation: In ATP-based viability assays light output follows the ATP content of the culture.

The test system of test [4] is HCC1937 BRCA1 mutant breast cancer cell line. Put plainly: CellTiter-Glo (CTG) cell growth inhibition, HCC1937. It counts as cell-based, human. Conditions: HCC1937 cells; for IC50: Homo sapiens, 168 h.
Text: as §1

In test [5] the test system is UWB1.289 BRCA1 mutant human ovarian cancer cell line. Put plainly: Clonogenic survival assay, UWB1.289. Conditions: UWB1.289 cells, Compound A at 250, 500 or 1000 nM, 8 days. The test is classed as cell-based. An excerpt: (§2) A549 human lung carcinoma cell line, UWB1.289 BRCA1 mutant human ovarian cancer cell line, and UWB1.289+BRCA1 stable cell line derived from UWB1.289, in which wild-type BRCA1 was restored, were obtained from the American Type Culture Collection (ATCC). Capan-1 BRCA2 mutant human pancreatic cell line was obtained from the Duke Cell Culture Facility (Duke University, Durham, NC). HCC1937 BRCA1 mutant breast cancer cell line was obtained from Simon Powell (Memorial-Sloan Kettering, NY, NY). All cell lines were authenticated by short tandem repeat profiling and tested negative for mycoplasma. A549 cells were cultured in RPMI 1640 medium (Gibco), supplemented with 10% fetal bovine serum (FBS) (Corning) and 1× Antibiotic-Antimycotic (A-A) (Gibco). Capan-1 cells were grown in Iscove's Modified Dulbecco's Medium (IMDM) (Gibco), 20% FBS and 1×A-A. HCC1937 cells were grown in Iscove's Modified Dulbecco's Medium, 15% serum, and L-glutamine (2 mM). […]
(§3) UWB1.289 and UWB1.289+BRCA1 cells were plated in 6-well plates at 1000 cells/well and treated with DMSO or Compound A at 250, 500 or 1000 nM for 8 days before colonies were counted. For shRNA experiments, A549 cells were treated with DMSO or Compound A at 250, 500 or 1000 nM following transduction of control shRNA or shBRCA2 for 8 days before colonies were counted. […]

The subject of test [6] is UWB1.289+BRCA1 stable cell line (wild-type BRCA1 restored). The test is described as follows: Clonogenic survival assay, UWB1.289+BRCA1. The test is classed as cell-based, human. Conditions: UWB1.289+BRCA1 cells, Compound A at 250, 500 or 1000 nM, 8 days.
Text: as §2, §3

In test [7] the test system is A549 human lung carcinoma cell line, BRCA2 knockdown (shBRCA2). Put plainly: Clonogenic survival assay, A549 with shBRCA2. It counts as cell-based. The note with it: A549 cells with BRCA2 knockdown, Compound A at 250, 500 or 1000 nM, 8 days.
Text: as §2, §3

[8] abbreviates: Compound A in combination with niraparib, 7 days.

Regarding `NC(=O)c1cccc2cn(-c3ccc([C@@H]4CCCNC4)cc3)nc12` [Niraparib, niraparib], the IC50 in test [1] (UWB1289, 168 h, single agent, 7 days, CTG, read-out: Single Agent IC50 (mean ± SEM) Niraparib) was 0.33 ± 0.09 µM; in test [1] (UWB1289, 0.25 μM Compound A + niraparib for 3 days, then niraparib alone for additional 4 days, read-out: IC50 + 0.25 μM Compound A (mean ± SEM) Niraparib), < 0.014 µM; in test [2] (0.5 μM Compound A + increasing concentrations of niraparib for 13 days, read-out: IC50 + 0.5 μM Compound A (mean ± SEM) Niraparib), 0.11 ± 0.01 µM; in test [2] (single agent, 13 days, CTG, read-out: Single Agent IC50 (mean ± SEM) Niraparib), 0.55 ± 0.05 µM; in test [3] (0.25 μM Compound A + niraparib for 3 days, then niraparib alone for additional 4 days, read-out: IC50 + 0.25 μM Compound A (mean ± SEM) Niraparib), 0.14 ± 0.02 µM; in test [3] (single agent, CTG, read-out: Single Agent IC50 (mean ± SEM) Niraparib), 1.4 ± 0.11 µM. Moreover, the IC50 in test [4] (0.25 μM Compound A + increasing concentrations of niraparib for 7 days, read-out: IC50 + 0.25 μM Compound A (mean ± SEM) Niraparib) stood at 0.38 ± 0.18 µM; in test [4] (single agent, 7 days, CTG, read-out: Single Agent IC50 (mean ± SEM) Niraparib), 3.7 ± 0.27 µM. Moreover, the “shift of the dose response curve of niraparib” value is listed as > 23 fold in test [1] (0.25 μM Compound A for 3 days of a 7-day treatment with niraparib); -5 fold in test [2] (addition of 0.5 μM Compound A); 10 fold in test [3] (UWB1.289+BRCA1 cells, 0.25 μM Compound A for 3 days of a 7-day treatment with niraparib); 10 fold in test [4] (addition of 0.25 μM Compound A).

Take `CC(C)NCCOc1ncc(-c2cc3c4c(cnc3cc2F)N(C)C(=O)C42CCC2)cc1NS(C)(=O)=O` [Compound A]: the “CI50 (combination index, method of Chou)” value in test [1] (setting [8]) was determined as 0.4; in test [2] (Compound A in combination with niraparib, 13 days) it was 0.5; in test [4] (setting [8]), 0.3. The IC50 in test [1] (UWB1289, 168 h, single agent, 7 days, CTG, read-out: Single Agent IC50 (mean ± SEM) Compound A) is 0.26 ± 0.1 µM; in test [2] (single agent, 13 days, CTG, read-out: Single Agent IC50 (mean ± SEM) Compound A), 0.81 ± 0.08 µM; in test [3] (single agent, CTG, read-out: Single Agent IC50 (mean ± SEM) Compound A), 0.8 ± 0.01 µM; in test [4] (single agent, 7 days, CTG, read-out: Single Agent IC50 (mean ± SEM) Compound A), 1 ± 0.17 µM. For the same molecule, the clonogenic survival result is on record as “exhibited sensitivity to Compound A” in test [5], “rescued with re-expression of wild-type BRCA1” in test [6] and “dose-dependent decrease in survival” in test [7].

One may read the IC50 as the concentration at which inhibition is half-maximal.
